Experimental data reported in EP1038880B1, “Androstanes and pregnanes for allosteric modulation of GABA receptor” (priority 1994, dated 1995).
Where two headings read alike, the source gives them in different places.

Assays:
[1] = target: T1, Bovine Uteral Estrogen Receptors (Bos taurus, UniProt P49884); assay: Inhibition of 3H-estradiol binding, uteri cytosol; details: competitor 10^-6M; 3H-estradiol 0.15 nM
T1 construct: from tissue; host or cells: bovine uteri cytosol
T1 sequence (P49884 1-596): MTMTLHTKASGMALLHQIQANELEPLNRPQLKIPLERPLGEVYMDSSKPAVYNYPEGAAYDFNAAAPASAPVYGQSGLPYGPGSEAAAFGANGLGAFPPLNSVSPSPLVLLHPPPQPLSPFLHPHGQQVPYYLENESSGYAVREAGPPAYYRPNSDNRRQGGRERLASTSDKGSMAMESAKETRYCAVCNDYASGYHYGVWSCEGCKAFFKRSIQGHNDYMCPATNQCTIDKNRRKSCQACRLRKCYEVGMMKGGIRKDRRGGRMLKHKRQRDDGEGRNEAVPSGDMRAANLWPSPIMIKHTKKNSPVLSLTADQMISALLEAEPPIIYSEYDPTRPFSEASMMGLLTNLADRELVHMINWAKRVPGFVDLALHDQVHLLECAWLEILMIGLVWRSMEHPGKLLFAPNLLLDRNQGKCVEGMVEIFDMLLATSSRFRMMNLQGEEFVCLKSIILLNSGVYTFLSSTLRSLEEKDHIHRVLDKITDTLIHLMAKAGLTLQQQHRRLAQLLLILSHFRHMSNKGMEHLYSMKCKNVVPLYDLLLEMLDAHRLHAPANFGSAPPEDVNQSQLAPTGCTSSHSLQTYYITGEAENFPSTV

[2] = test system: Bovine Uteral Progesterone Receptors; assay: Inhibition of 3H-progesterone binding, uterus cytosol; details: competitor 10^-6M; 3H-progesterone 0.15 nM
Method: The data presented were obtained by performing assays in accordance with the procedures described in et al. 1988 previously to determine the effect of progesterone metabolites and their derivatives and the progestin R5020 on the binding of [^3H]R5020 to the progesterone receptor in rat uterus (Gee et al. 1988).
^3H-progesterone (0.15 nM) was incubated with the rat uterus cytosol in the presence of the test compounds. The specific binding were determined after incubation and compared to the control incubation without the compounds. The data are expressed as percent inhibition of binding.
In Table 3, rats were adrenalectomized 3 days prior to sacrifice. To isolate the mineralocorticoid receptor, brain cytosol fractions were prepared as describe in Gee, et al. 1988. The drugs were incubated with 3 nM of ^3H-aldosterone (the specific ligand for the mineralocorticoid receptor) in the presence of the selective type II agonist RU28362 (0.5 µM) which blocks ^3H-aldosterone binding to the type II (glucocorticoid) receptors. Table 2. Inhibition of 3H-Progesterone Binding to the Bovine Uteral Progesterone Receptors

[3] = target: T2, Hippocampal Mineralocorticoid Receptors (Rattus norvegicus, UniProt P22199); assay: Inhibition of 3H-aldosterone binding, brain cytosol; design: species or system rats; details: competitor 10^-6M; 3 nM 3H-aldosterone, RU28362 0.5 µM
T2 construct: To isolate the mineralocorticoid receptor, brain cytosol fractions were prepared; from tissue; host or cells: rat brain (hippocampal) cytosol
T2 sequence (P22199 1-981): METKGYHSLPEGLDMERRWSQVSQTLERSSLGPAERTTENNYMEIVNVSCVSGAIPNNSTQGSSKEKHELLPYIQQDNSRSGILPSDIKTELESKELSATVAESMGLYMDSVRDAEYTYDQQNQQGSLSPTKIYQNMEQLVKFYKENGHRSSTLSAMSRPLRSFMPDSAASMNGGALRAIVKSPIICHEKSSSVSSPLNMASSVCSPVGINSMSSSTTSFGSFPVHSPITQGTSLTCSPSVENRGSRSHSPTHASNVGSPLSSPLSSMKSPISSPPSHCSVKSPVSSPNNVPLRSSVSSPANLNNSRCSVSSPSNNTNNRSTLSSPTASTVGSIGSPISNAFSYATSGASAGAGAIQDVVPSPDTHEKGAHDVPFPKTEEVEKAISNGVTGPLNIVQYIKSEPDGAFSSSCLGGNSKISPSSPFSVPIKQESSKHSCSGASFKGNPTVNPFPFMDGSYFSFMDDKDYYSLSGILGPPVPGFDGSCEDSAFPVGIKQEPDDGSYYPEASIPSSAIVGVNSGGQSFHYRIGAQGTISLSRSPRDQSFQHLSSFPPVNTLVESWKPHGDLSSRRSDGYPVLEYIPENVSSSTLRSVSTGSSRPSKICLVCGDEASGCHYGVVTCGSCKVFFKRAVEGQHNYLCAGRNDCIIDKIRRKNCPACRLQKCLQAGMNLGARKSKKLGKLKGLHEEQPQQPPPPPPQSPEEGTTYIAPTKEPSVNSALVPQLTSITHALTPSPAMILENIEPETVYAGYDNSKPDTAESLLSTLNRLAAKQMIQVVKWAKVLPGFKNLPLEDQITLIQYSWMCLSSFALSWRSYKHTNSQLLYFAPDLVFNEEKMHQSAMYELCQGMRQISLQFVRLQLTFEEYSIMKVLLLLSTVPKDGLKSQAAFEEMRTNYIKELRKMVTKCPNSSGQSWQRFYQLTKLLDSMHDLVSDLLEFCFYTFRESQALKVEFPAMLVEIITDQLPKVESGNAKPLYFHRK
Method: (§1) Various hormonal activities of representative neuroactive steroids were further studied through testing their potential estrogenic, mineralocorticoid and glucocorticoid activities. These activities were analyzed by monitoring the ability of the compounds to inhibit binding of the steroid hormones to their respective hormone receptors.
In Table 3, rats were adrenalectomized 3 days prior to sacrifice. […] Table 2. Inhibition of 3H-Progesterone Binding to the Bovine Uteral Progesterone Receptors
Table 3. Inhibition of 3H-Aldosterone Binding to Hippocampal Mineralocorticoid Receptors

mice [4] = assay: Loss-of-righting reflex (anesthetic activity); type: in vivo; details: iv
Method: The compounds of and used in the invention can also be used for anesthetic indications at high doses. However, the preferred route of administration to induce anesthesia is intravenous (i.v.) administration. In animals, a drug's anesthetic properties is measured by the drug's ability to produce a loss-of-righting reflex. The loss-of-righting reflex is defined as the inability of an animal to right itself within […] on its back. Mice were administered drug i.v. in the lateral tail vein. Following administration, mice were placed on their backs and observed for loss-of-righting reflex. Table 12. Anesthetic Activity of Neuroactive Steroids in Mice

[5] = test system: metrazol induced convulsions; assay: animal or person; type: in vivo, mice; details: Mus musculus; metrazol 85 mg/kg s.c., steroids i.p., mice
(+)bicuculline [6] = assay: Anticonvulsant test against (+)bicuculline; type: in vivo, mice; details: Mus musculus, read-out: ED50 BIC
Method: (§2) The anticonvulsant tests are similar to that described above. […] The number of animals with tonic and/or clonic convulsions was recorded. In the maximal electroshock test, 50 mA of current at 60 Hz was delivered through corneal electrodes for 200 msec to induce tonic seizure. The ability of compounds to abolish the tonic component was defined as the endpoint. General CNS depression potential was determined by a rotorod test 10 minutes after the injection of compounds where the number of mice staying on a rotating (6 rpm) rod for 1 minute in one of the three trials was determined. […] Table 7. Anticonvulsant Activity of Exemplified Neuroactive Steroids and those of Selected Clinically Useful Anticonvulsants in Mice

picrotoxin [7] = assay: Anticonvulsant test against picrotoxin; type: in vivo, mice; details: Mus musculus, read-out: ED50 PICRO
Method: as §2

tonic seizure [8] = assay: Maximal electroshock test; type: in vivo; details: Mus musculus, ip, steroids i.p., mice
Method: as §2

Glucocorticoid Receptors = target: T3, Glucocorticoid Receptors (Rattus norvegicus, UniProt P06536); assay: Inhibition of 3H-dexamethasone binding, brain cytosol; design: species or system rats; dose or concentration left out as unconfirmed; details: read-out: % of Inhibition
T3 construct: from tissue; host or cells: rat brain cytosol
T3 sequence (P06536 1-795): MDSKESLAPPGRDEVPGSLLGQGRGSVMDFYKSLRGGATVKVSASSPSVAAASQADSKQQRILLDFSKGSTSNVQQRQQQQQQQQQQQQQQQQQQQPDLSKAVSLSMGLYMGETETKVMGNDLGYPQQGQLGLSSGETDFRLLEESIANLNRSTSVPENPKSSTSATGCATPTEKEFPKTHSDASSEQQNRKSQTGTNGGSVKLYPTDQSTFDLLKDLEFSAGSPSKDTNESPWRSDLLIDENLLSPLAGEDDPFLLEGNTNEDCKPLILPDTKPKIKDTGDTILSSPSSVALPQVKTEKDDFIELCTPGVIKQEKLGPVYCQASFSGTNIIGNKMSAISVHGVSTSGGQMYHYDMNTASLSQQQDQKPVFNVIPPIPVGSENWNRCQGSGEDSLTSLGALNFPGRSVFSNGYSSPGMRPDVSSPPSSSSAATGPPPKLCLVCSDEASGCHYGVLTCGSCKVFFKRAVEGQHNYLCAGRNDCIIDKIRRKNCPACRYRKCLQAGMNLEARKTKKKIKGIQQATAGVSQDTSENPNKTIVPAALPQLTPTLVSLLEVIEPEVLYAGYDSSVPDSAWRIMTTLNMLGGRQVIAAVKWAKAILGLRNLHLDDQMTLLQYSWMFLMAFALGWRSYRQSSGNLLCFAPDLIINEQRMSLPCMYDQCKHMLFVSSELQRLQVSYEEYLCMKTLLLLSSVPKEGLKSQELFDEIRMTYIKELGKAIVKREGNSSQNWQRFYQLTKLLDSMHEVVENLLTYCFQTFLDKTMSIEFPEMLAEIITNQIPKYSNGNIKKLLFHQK
Method: as §1
For Table 4, brain cytosol fractions were prepared as for Table 3, and the compounds were incubated with 3 nM of ^3H-dexamethasone (the specific ligand for the glucocorticoid receptor).

strychnine [9] = assay: Anticonvulsant test against strychnine; type: in vivo, mice; details: Mus musculus, read-out: ED50 STR
Method: as §2

[10] = test system: N.I.H. Swiss-Webster mice; assay: Light/dark transition test; type: in vivo; details: IP, 10 min test, vs control, Dunnett's t-test (Fig. 8)
Method: Male N.I.H. Swiss-Webster mice (Harlan, Harlan, Indianapolis, IN) weighing 15-20 g were housed four per cage in polyethylene cages with sawdust bedding. The colony room was environmentally controlled (22°C) with a hr light/dark cycle (0600-1800hr). Food and water were available ad libitum, except during testing. The experiments were run from 0700-1500 hr and groups were counterbalanced for time of day effects. Mice were only administered drug or vehicle once.
The apparatus included two 2-compartment automated test chambers (Model RXYZCM16, Omnitech Electronics, Columbus, OH). The open compartment was connected to the enclosed compartment via a 7.5 × 7.5 cm passageway. The open compartment was brightly lit using a 200 W incandescent light bulb. The experimental room was kept dark. Interruptions of the infrared beams in either chamber were automatically recorded by being linked to a computer through a Digiscan Analyzer (Omnitech and the data was analyzed using the Integrated Lab Animal Monitoring System (Omnitech Electronics). N.IH. Swiss-Webster mice were administered vehicle or test drug intraperiotoneally (IP),10 min later they were placed in the center of the lit compartment. The number of transitions between the lit and dark chambers, total activity in the lit chamber and the time spent in the lit chamber were measured during a 10 min test period.

picrotoxin [11] = details: cited from earlier work
[12] = test system: metrazol induced convulsions; details: cited from earlier work
tonic seizure [13] = details: cited from earlier work
(+)bicuculline [14] = details: cited from earlier work
mice [15] = details: data from Swinyard & Woodhead 1982; cited from earlier work
strychnine [16] = details: convulsant i.v.; data from Worms et al. 1982; cited from earlier work
[17] = data from Swinyard & Woodhead 1982
[18] = convulsant i.v., data from Worms et al. 1982

5α-pregnan-3β,20-trimethyl-3α,20-diol
% of Inhibition [1]: 0%
% of Inhibition [2]: 8%
% of Inhibition [3]: 0%

CC(=O)[C@H]1CC[C@H]2[C@@H]3CC[C@H]4C[C@H](O)CC[C@]4(C)C3=CC[C@]12C [3α-Hydroxy-5α-pregn-9-en-20-one]
Loss-of-Righting Reflex (mice [4]; 10 mg/kg): 100

CO/C=C1/CC[C@H]2[C@@H]3CC[C@H]4C[C@H](O)CC[C@@H]4[C@H]3CC[C@]12C [3α-Hydroxy-17(Z)-methoxymethylene-19-nor-5α-androstane]
Loss-of-Righting Reflex (mice [4]; 5 mg/kg): 75

CC(=O)[C@H]1CC[C@H]2[C@@H]3CC[C@H]4C[C@](C)(O)CC[C@]4(C)[C@H]3CC[C@]12C [3α-hydroxy-3β-methyl-5α-pregnan-20-one]
ED50 [5]: 6.3 mg/kg
ED50 ((+)bicuculline [6]): 61.9 mg/kg
ED50 (picrotoxin [7]): 35.4 mg/kg
% of Inhibition [2]: 4%
inhibition at 1 µM [3]: 3.2%
ED50 (tonic seizure [8]): > 100 mg/kg
inhibition (Glucocorticoid Receptors): 0.6%
ED50 (strychnine [9]): > 100 mg/kg

CC(=O)[C@H]1CC[C@H]2[C@@H]3CC[C@@H]4C[C@@](O)(C#CCl)CC[C@]4(C)[C@H]3CC[C@]12C [3β-(Chloroethynyl)-3α-hydroxy-5β-pregnan-20-one]
Loss-of-Righting Reflex (mice [4]; 20 mg/kg): 100

CC(=O)[C@H]1CC[C@H]2[C@@H]3CC[C@@H]4C[C@H](O)CC[C@]4(C)[C@H]3CC[C@]12C [5β-pregnan-3α-ol-20-one, 3α-OH-5β-pregnan-20-one]
number of transitions between the dark box and the light box, in words [10]: significantly increased
% of Inhibition [2]: 9%

O=C1CN=C(c2ccccc2Cl)c2cc([N+](=O)[O-])ccc2N1 [Clonazepam]
ED50 PICRO (picrotoxin [11]; [17]): 0.043 mg/kg
ED50 MTZ [12, 17]: 0.009 mg/kg
ED50 MES (tonic seizure [13]; [17]): 93 mg/kg
ED50 BIC ((+)bicuculline [14]; [17]): 0.0086 mg/kg
ED50 RR (mice [15]): 0.184 mg/kg

CCC1(c2ccccc2)C(=O)NC(=O)NC1=O [Phenobarbital]
ED50 RR (mice [15]): 69 mg/kg

NC(=O)CCC/N=C(\c1ccc(Cl)cc1)c1cc(F)ccc1O [Progabide]
ED50 PICRO (picrotoxin [11]; [18]): 105 mg/kg
ED50 MTZ [12, 18]: 30 mg/kg
ED50 MES (tonic seizure [13]; data from Worms et al. 1982): 75 mg/kg
ED50 BIC ((+)bicuculline [14]; [18]): 30 mg/kg
ED50 STR (strychnine [16]): 75 mg/kg
